From ChEMBL document CHEMBL3885861, “Open TG-GATES”

Species: Rattus norvegicus
Experiment: Open TG-GATES - Regimen: Daily Repeat
Assay type: toxicity, organism-based, Sprague-Dawley
Set-up: regimen Daily Repeat, gender Male, age 6 weeks
Details: in vivo, po, 0 mg/kg, route gavage, dose level Control; for APTT / Bas / Eos / Fbg / Hb / Ht / Lym / MCH / MCHC / MCV / Mono / Neu / PT / Plat / RBC / Ret / WBC: tissue Blood; for KIDNEY_L / KIDNEY_R / KIDNEY_TOTAL: tissue Kidney; for LIVER: tissue Liver; for A/G / ALP / ALT / AST / BUN / CRE / Ca / Cl / DBIL / GLC / IP / K / LDH / Na / PL / RALB / TBIL / TC / TG / TP / gamma-GTP: tissue Plasma

SMILES: C[C@H]1O[C@H](O[C@H]2[C@H](O)[C@@H](O)[C@@H](O[C@H]3[C@H](O)[C@@H](O)C(O)O[C@@H]3CO)O[C@@H]2CO)[C@H](O)[C@@H](O)[C@@H]1N[C@H]1C=C(CO)[C@@H](O)[C@H](O)[C@H]1O (some centres not stated) [ACARBOSE]
- TERMINAL_BW (72 h, time 3 day): 228.3 g
- APTT (72 h, time 3 day): 16.7 s
- Bas (72 h, time 3 day): 0%
- Eos (72 h, time 3 day): 1.2%
- Fbg (72 h, time 3 day): 274.6 mg/dL
- Hb (72 h, time 3 day): 13.7 g/dL
- Ht (72 h, time 3 day): 41.3%
- Lym (72 h, time 3 day): 73.2%
- MCH (72 h, time 3 day): 21.7 pg
- MCHC (72 h, time 3 day): 33.1%
- MCV (72 h, time 3 day): 65.4 fL
- Mono (72 h, time 3 day): 3.2%
- Neu (72 h, time 3 day): 21.4%
- PT (72 h, time 3 day): 13 s
- Plat (72 h, time 3 day): 129.5 x10_4/uL
- RBC (72 h, time 3 day): 632.2 x10_4/ul
- Ret (72 h, time 3 day): 7%
- WBC (72 h, time 3 day): 102.7 x10_2/uL
- KIDNEY_L (72 h, time 3 day): 1 g
- KIDNEY_R (72 h, time 3 day): 1 g
- KIDNEY_TOTAL (72 h, time 3 day): 2 g
- LIVER (72 h, time 3 day): 10.3 g
- A/G (72 h, time 3 day): 0.9
- ALP (72 h, time 3 day): 1816 IU/L
- ALT (72 h, time 3 day): 42.4 IU/L
- AST (72 h, time 3 day): 71 IU/L
- BUN (72 h, time 3 day): 14 mg/dL
- CRE (72 h, time 3 day): 0.2 mg/dL
- Ca (72 h, time 3 day): 10.8 mg/dL
- Cl (72 h, time 3 day): 104.2 meq/L
- DBIL (72 h, time 3 day): 0.006 mg/dL
- GLC (72 h, time 3 day): 173 mg/dL
- IP (72 h, time 3 day): 7.5 mg/dL
- K (72 h, time 3 day): 4 meq/L
- LDH (72 h, time 3 day): 86.2 IU/L
- Na (72 h, time 3 day): 140.6 meq/L
- PL (72 h, time 3 day): 144.8 mg/dL
- RALB (72 h, time 3 day): 2.6 g/dL
- TBIL (72 h, time 3 day): 0.054 mg/dL
- TC (72 h, time 3 day): 71.6 mg/dL
- TG (72 h, time 3 day): 99 mg/dL
- TP (72 h, time 3 day): 5.5 g/dL
- gamma-GTP (72 h, time 3 day): 1 IU/L
- TERMINAL_BW ([…], time 7 day): 273.8 g
- TERMINAL_BW ([…], time 14 day): 316.7 g
- TERMINAL_BW ([…], time 28 day): 390.9 g
- APTT ([…], time 7 day): 18 s
- Bas ([…], time 7 day): 0.2%
- Eos ([…], time 7 day): 0.8%
- Fbg ([…], time 7 day): 296.6 mg/dL
- Hb ([…], time 7 day): 13.9 g/dL
- Ht ([…], time 7 day): 41.6%
- Lym ([…], time 7 day): 77.2%
- MCH ([…], time 7 day): 21.3 pg
- MCHC ([…], time 7 day): 33.3%
- MCV ([…], time 7 day): 63.9 fL
- Mono ([…], time 7 day): 2.6%
- Neu ([…], time 7 day): 18.6%
- PT ([…], time 7 day): 12.8 s
- Plat ([…], time 7 day): 129.4 x10_4/uL
- RBC ([…], time 7 day): 652.4 x10_4/ul
- Ret ([…], time 7 day): 6.5%
- WBC ([…], time 7 day): 89.4 x10_2/uL
- APTT ([…], time 14 day): 22.2 s
- Bas ([…], time 14 day): 0%
- Eos ([…], time 14 day): 0.8%
- Fbg ([…], time 14 day): 287.8 mg/dL
- Hb ([…], time 14 day): 14.6 g/dL
- Ht ([…], time 14 day): 43.2%
- Lym ([…], time 14 day): 76%
- MCH ([…], time 14 day): 20.3 pg
- MCHC ([…], time 14 day): 33.8%
- MCV ([…], time 14 day): 60.1 fL
- Mono ([…], time 14 day): 2%
- Neu ([…], time 14 day): 20%
- PT ([…], time 14 day): 13.1 s
- Plat ([…], time 14 day): 124.4 x10_4/uL
- RBC ([…], time 14 day): 720 x10_4/ul
- Ret ([…], time 14 day): 4.4%
- WBC ([…], time 14 day): 107.6 x10_2/uL
- APTT ([…], time 28 day): 20.5 s
- Bas ([…], time 28 day): 0%
- Eos ([…], time 28 day): 1.6%
- Fbg ([…], time 28 day): 283.4 mg/dL
- Hb ([…], time 28 day): 15.9 g/dL
- Ht ([…], time 28 day): 45.7%
- Lym ([…], time 28 day): 79.6%
- MCH ([…], time 28 day): 19.9 pg
- MCHC ([…], time 28 day): 34.8%
- MCV ([…], time 28 day): 57.2 fL
- Mono ([…], time 28 day): 2%
- Neu ([…], time 28 day): 16.2%
- PT ([…], time 28 day): 13.3 s
- Plat ([…], time 28 day): 103.4 x10_4/uL
- RBC ([…], time 28 day): 799.4 x10_4/ul
- Ret ([…], time 28 day): 2.2%
- WBC ([…], time 28 day): 93.1 x10_2/uL
- KIDNEY_L ([…], time 7 day): 1.1 g
- KIDNEY_R ([…], time 7 day): 1.1 g
- KIDNEY_TOTAL ([…], time 7 day): 2.3 g
- KIDNEY_L ([…], time 14 day): 1.1 g
- KIDNEY_R ([…], time 14 day): 1.2 g
- KIDNEY_TOTAL ([…], time 14 day): 2.3 g
- KIDNEY_L ([…], time 28 day): 1.4 g
- KIDNEY_R ([…], time 28 day): 1.3 g
- KIDNEY_TOTAL ([…], time 28 day): 2.7 g
- LIVER ([…], time 7 day): 13.2 g
- LIVER ([…], time 14 day): 13.2 g
- LIVER ([…], time 28 day): 15 g
- A/G ([…], time 7 day): 0.8
- ALP ([…], time 7 day): 1472.4 IU/L
- ALT ([…], time 7 day): 38.4 IU/L
- AST ([…], time 7 day): 66.6 IU/L
- BUN ([…], time 7 day): 16.4 mg/dL
- CRE ([…], time 7 day): 0.2 mg/dL
- Ca ([…], time 7 day): 11 mg/dL
- Cl ([…], time 7 day): 103.6 meq/L
- DBIL ([…], time 7 day): 0.004 mg/dL
- GLC ([…], time 7 day): 173.8 mg/dL
- IP ([…], time 7 day): 8.1 mg/dL
- K ([…], time 7 day): 3.8 meq/L
- LDH ([…], time 7 day): 83.8 IU/L
- Na ([…], time 7 day): 142.4 meq/L
- PL ([…], time 7 day): 160.4 mg/dL
- RALB ([…], time 7 day): 2.7 g/dL
- TBIL ([…], time 7 day): 0.052 mg/dL
- TC ([…], time 7 day): 83.2 mg/dL
- TG ([…], time 7 day): 115.6 mg/dL
- TP ([…], time 7 day): 5.8 g/dL
- gamma-GTP ([…], time 7 day): 1 IU/L
- A/G ([…], time 14 day): 0.8
- ALP ([…], time 14 day): 1741.6 IU/L
- ALT ([…], time 14 day): 42.6 IU/L
- AST ([…], time 14 day): 72.2 IU/L
- BUN ([…], time 14 day): 16 mg/dL
- CRE ([…], time 14 day): 0.2 mg/dL
- Ca ([…], time 14 day): 10.6 mg/dL
- Cl ([…], time 14 day): 105.8 meq/L
- DBIL ([…], time 14 day): 0.014 mg/dL
- GLC ([…], time 14 day): 188 mg/dL
- IP ([…], time 14 day): 6.4 mg/dL
- K ([…], time 14 day): 4.1 meq/L
- LDH ([…], time 14 day): 74.6 IU/L
- Na ([…], time 14 day): 142 meq/L
- PL ([…], time 14 day): 161.4 mg/dL
- RALB ([…], time 14 day): 2.7 g/dL
- TBIL ([…], time 14 day): 0.048 mg/dL
- TC ([…], time 14 day): 74.4 mg/dL
- TG ([…], time 14 day): 182.4 mg/dL
- TP ([…], time 14 day): 6 g/dL
- gamma-GTP ([…], time 14 day): 1 IU/L
- A/G ([…], time 28 day): 0.8
- ALP ([…], time 28 day): 1131.6 IU/L
- ALT ([…], time 28 day): 43.4 IU/L
- AST ([…], time 28 day): 69.6 IU/L
- BUN ([…], time 28 day): 17.2 mg/dL
- CRE ([…], time 28 day): 0.2 mg/dL
- Ca ([…], time 28 day): 10.8 mg/dL
- Cl ([…], time 28 day): 104.4 meq/L
- DBIL ([…], time 28 day): 0.014 mg/dL
- GLC ([…], time 28 day): 184.8 mg/dL
- IP ([…], time 28 day): 6.4 mg/dL
- K ([…], time 28 day): 4.2 meq/L
- LDH ([…], time 28 day): 121 IU/L
- Na ([…], time 28 day): 141.6 meq/L
- PL ([…], time 28 day): 146.6 mg/dL
- RALB ([…], time 28 day): 2.8 g/dL
- TBIL ([…], time 28 day): 0.056 mg/dL
- TC ([…], time 28 day): 66.8 mg/dL
- TG ([…], time 28 day): 158.2 mg/dL
- TP ([…], time 28 day): 6.2 g/dL
- gamma-GTP ([…], time 28 day): 1 IU/L
